Assay results published in patent US20080171783A1, “COMPOSITIONS AND METHODS FOR TREATING HYPERPROLIFERATIVE DISEASE” (Migenix Inc., priority 2006, published 2008).

What was measured:
[1] = system: 5 Leukemia and 5 Colon Cancer Cell Lines; experiment: Cell viability by XTT, cell line panel; type: cell-based; settings: for ARF (Average Response Factor, Average Percentage of Control) / Range (Percentage of Control over the same 10 cell lines): 10 μM; for ARF (Average Response Factor, Average Percentage of Control) / viability at 10 µM: average of the ten Percentage of Control values; for Range (Percentage of Control over the same 10 cell lines): lowest to highest of the ten cell lines; for viability at 10 µM: read-out: ARF (Average Response Factor, Average Percentage of Control)
Method: Compounds were solubilized at […] in DMSO and were stored at −20° C. Test compounds were initially tested at a single concentration of 10 μM and a subset of test compounds were further tested in selected cell lines using a six concentration dose response curve.
Cell Preparation Cancer cell lines were passaged in T-75 flasks prior to use in the assay in cell culture medium recommended by the ATCC (American Type Culture Collection; Table 6). On the day preceding the assay, the cells were split 1:2 to assure they were in an exponential growth phase at the time of compound treatment. Total cell and viability quantification was performed using a hemocytometer and Trypan Blue dye exclusion. […] The cells were resuspended at the appropriate cell per mL (Table 6) in tissue culture medium and added to the microtitre plates in a volume of 100 μL. Colon cell lines were incubated overnight at 37° C./5% CO2 to allow for cell adherence to the plates.
Plate Format: Each plate contains cell control wells (cells only), drug calorimetric control wells (drug only) as well as experimental wells (drug plus cells). Samples were tested in triplicate at a concentration of 10 μM and five half-logarithmic dilutions.
Cell Viability by XTT: Following incubation at 37° C. in a 5% CO2 incubator for four days, the test plates were stained with the tetrazolium dye XTT (2,3-bis(2-methoxy-4-nitro-5-sulfophenyl)-5-[(phenylamino)carbonyl]-2H-tetrazolium hydroxide). XTT-tetrazolium was metabolized by the mitochondrial enzymes of metabolically active cells to a soluble formazan product. XTT solution was prepared daily as a stock of 1 mg/mL in RPMI1640. Phenazine methosulfate (PMS) solution was prepared at 0.15 mg/mL in phosphate buffered saline (PBS) and stored in the dark at −20° C. XTT/PMS stock was prepared immediately before use by adding 40 μL of PMS per mL of XTT solution. Fifty (50) microlitres of XTT/PMS was added to each well of the plate and the plate was reincubated for 4 hours at 37° C. Plates were sealed with adhesive plate sealers and shaken gently or inverted several times to mix the soluble formazan product and the plate was read spectrophotometrically at 450/650 nm with a Molecular Devices Vmax plate reader. […] An Average Response Factor (ARF) was calculated for each compound by averaging the ten Percentage of Control values for the cell lines. […] Deviations below 100% control indicate activity. The concentration of each tested compound is 10 μM.

Calf polymerase alpha = molecular target: T1, Calf polymerase alpha (Bos taurus, UniProt A0AAA9TD94); experiment: Calf polymerase alpha inhibition (Replizyme kit); type: biochemical; settings: at 10 μM, single point screening
T1 construct: purchased Replizyme Ltd (Heslington, York, UK)
T1 sequence (A0AAA9TD94 1-1441): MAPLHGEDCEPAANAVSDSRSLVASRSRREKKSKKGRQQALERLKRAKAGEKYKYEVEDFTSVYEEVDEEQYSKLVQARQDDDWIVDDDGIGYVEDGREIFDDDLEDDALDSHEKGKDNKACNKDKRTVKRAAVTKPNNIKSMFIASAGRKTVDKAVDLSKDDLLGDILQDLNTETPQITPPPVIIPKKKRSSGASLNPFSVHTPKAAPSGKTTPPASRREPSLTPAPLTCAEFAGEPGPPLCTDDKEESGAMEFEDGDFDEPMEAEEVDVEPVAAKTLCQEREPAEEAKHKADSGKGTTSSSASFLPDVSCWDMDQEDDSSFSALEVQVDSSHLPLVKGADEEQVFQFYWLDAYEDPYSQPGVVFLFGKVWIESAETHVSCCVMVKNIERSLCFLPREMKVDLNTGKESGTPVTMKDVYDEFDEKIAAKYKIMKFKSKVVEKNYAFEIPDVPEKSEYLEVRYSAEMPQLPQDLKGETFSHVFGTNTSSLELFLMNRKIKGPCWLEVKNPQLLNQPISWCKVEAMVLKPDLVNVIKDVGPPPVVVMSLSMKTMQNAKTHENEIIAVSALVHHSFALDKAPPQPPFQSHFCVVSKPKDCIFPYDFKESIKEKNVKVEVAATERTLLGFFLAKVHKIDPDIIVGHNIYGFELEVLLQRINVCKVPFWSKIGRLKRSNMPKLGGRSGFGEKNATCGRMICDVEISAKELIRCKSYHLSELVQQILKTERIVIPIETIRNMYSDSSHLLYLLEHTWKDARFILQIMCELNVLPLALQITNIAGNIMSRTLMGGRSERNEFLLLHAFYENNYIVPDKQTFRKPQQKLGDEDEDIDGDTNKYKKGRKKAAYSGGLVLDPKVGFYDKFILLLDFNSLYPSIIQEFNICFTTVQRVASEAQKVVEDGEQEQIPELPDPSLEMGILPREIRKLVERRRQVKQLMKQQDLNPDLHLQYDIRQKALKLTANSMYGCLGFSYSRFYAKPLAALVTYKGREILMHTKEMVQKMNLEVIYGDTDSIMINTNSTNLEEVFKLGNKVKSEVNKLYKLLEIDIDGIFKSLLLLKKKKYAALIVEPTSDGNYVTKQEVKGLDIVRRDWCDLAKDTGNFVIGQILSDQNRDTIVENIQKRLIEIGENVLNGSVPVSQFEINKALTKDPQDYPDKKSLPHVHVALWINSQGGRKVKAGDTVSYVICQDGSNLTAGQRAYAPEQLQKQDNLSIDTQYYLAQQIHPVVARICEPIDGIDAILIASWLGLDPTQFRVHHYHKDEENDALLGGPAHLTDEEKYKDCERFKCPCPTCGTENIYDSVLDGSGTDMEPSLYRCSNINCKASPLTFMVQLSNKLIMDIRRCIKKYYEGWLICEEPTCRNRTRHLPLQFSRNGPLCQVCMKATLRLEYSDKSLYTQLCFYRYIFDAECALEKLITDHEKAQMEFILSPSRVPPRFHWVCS
Method: Calf polymerase alpha and human polymerase alpha investigations were performed with a kit available from Replizyme Ltd (Heslington, York, UK).

| SMILES | ARF (Average Response Factor, Average Percentage of Control) [1] [%] | Range (Percentage of Control over the same 10 cell lines) [1] [%] | % Inhibition (Calf polymerase alpha) [%] | viability at 10 µM [1] [%] | inhibition at 10 µM (Calf polymerase alpha) [%] |
| --- | --- | --- | --- | --- | --- |
| Cc1ccc(NC(=O)[C@H](CCCCN)NS(=O)(=O)c2ccc(-c3ccccc3)cc2)cc1 [Compound 70, (S)-6-AMINO-2-(BIPHENYL-4-SULFONYLAMINO)-HEXANOIC ACID P-TOLYLAMIDE] | 94.5 | 61.1 to 115.5 | 50 | – | – |
| NCCCC[C@H](NC(=O)OCC1c2ccccc2-c2ccccc21)C(=O)Nc1ccc2c(c1)CCC2 [Compound 81, (S)-[5-AMINO-1-(INDAN-5-YLCARBAMOYL)-PENTYL]-CARBAMIC ACID 9H-FLUOREN-9-YLMETHYL ESTER] | – | 61.3 to 116.5 | – | 94.2 | 101 |
| Cc1ccc(NC(=O)[C@H](CCCCN)NC(=O)Nc2cccc(Oc3ccccc3)c2)cc1 [Compound 98, (S)-6-AMINO-2-[3-(3-PHENOXY-PHENYL)-UREIDO]-HEXANOIC ACID P-TOLYLAMIDE] | 90.8 | 53.8 to 126.6 | 89 | – | – |
| NCCCC[C@H](NC(=O)Nc1ccc(OCc2ccccc2)cc1)C(=O)Nc1ccc(C2CCCCC2)cc1 [Compound 117, (S)-6-AMINO-2-[3-(4-BENZYLOXY-PHENYL)-UREIDO]-HEXANOIC ACID (4-CYCLOHEXYL-PHENYL)-AMIDE] | – | 35.7 to 125.7 | – | 86.5 | 102 |
| NCCCCC[C@H](NC(=O)NCc1ccccc1)C(=O)Nc1ccc(C2CCCCC2)cc1 [Compound 120, (S)-7-AMINO-2-(3-BENZYL-UREIDO)-HEPTANOIC ACID (4-CYCLOHEXYL-PHENYL)-AMIDE] | – | 40.4 to 117.1 | – | 88.4 | 100 |
| Cc1ccc(NC(=O)[C@H](CCCN)NC(=O)Nc2ccc(OCc3ccccc3)cc2)cc1 [Compound 189, (S)-5-AMINO-2-[3-(4-BENZYLOXY-PHENYL)-UREIDO]-PENTANOIC ACID P-TOLYLAMIDE] | 89.0 | 66.6 to 107.6 | 76 | – | – |
| Cc1ccc(NC(=O)[C@H](CCCCN)NC(=O)Nc2cccc(OCc3ccccc3)c2)cc1 [Compound 204, (S)-6-AMINO-2-[3-(3-BENZYLOXY-PHENYL)-UREIDO]-HEXANOIC ACID P-TOLYLAMIDE] | 89.3 | 70.1 to 116.4 | 94 | – | – |
| Cc1cc2cc(NC(=O)[C@H](CCCCN)NC(=O)Nc3ccc(OCc4ccccc4)cc3)ccc2[nH]1 [Compound 206, (S)-6-AMINO-2-[3-(4-BENZYLOXY-PHENYL)-UREIDO]-HEXANOIC ACID (2-METHYL-1H-INDOL-5-YL)-AMIDE] | – | 81.4 to 107.6 | – | 92.9 | 87 |
| Cc1ccc(NC(=O)[C@H](CCCCN)NC(=O)Nc2cccc(Cc3ccccc3)c2)cc1 [Compound 212, (S)-6-AMINO-2-[3-(3-BENZYL-PHENYL)-UREIDO]-HEXANOIC ACID P-TOLYLAMIDE] | 94.2 | 52.7 to 118.6 | 97 | – | – |
| Cc1ccc(NC(=O)C[C@H](CCCCN)NC(=O)Nc2ccc3c(c2)Cc2ccccc2-3)cc1 [Compound 247, (S)-7-AMINO-3-[3-(9H-FLUOREN-2-YL)-UREIDO]-HEPTANOIC ACID P-TOLYLAMIDE] | 85.6 | 28.5 to 104.3 | 87 | – | – |
| NCc1ccc(NC(=O)[C@@H](NC(=O)Nc2ccc(OCc3ccccc3)cc2)c2ccccc2)cc1 [Compound 305, (S)—N-(4-AMINOMETHYL-PHENYL)-2-[3-(4-BENZYLOXY-PHENYL)-UREIDO]-2-PHENYL-ACETAMIDE] | – | 30.9 to 105.9 | – | 79.5 | 104 |
| NCCCCCCNC(=O)[C@@H](NC(=O)Nc1ccc(OCc2ccccc2)cc1)c1ccccc1 [Compound 319, (S)—N-(6-AMINO-HEXYL)-2-[3-(4-BENZYLOXY-PHENYL)-UREIDO]-2-PHENYL-ACETAMIDE] | – | 80.0 to 116.4 | – | 95.6 | 71 |
| NCCCC[C@H](NC(=O)Nc1ccc(OCc2ccccc2)cc1)C(=O)Nc1cccc2c1CCC2 [Compound 321, (S)-6-AMINO-2-[3-(4-BENZYLOXY-PHENYL)-UREIDO]-HEXANOIC ACID INDAN-4-YLAMIDE] | – | 55.9 to 109.3 | – | 88 | 101 |
| NCCCCN(CC(=O)Nc1ccc(C2CCCCC2)cc1)C(=O)Nc1ccc(C=Cc2ccccc2)cc1 [Compound 324, 2-[1-(4-AMINO-BUTYL)-3-(4-STYRYL-PHENYL)-UREIDO]-N-(4-CYCLOHEXYL-PHENYL)-ACETAMIDE] | – | 69.3 to 109.9 | – | 95.8 | 92.5 |
| Cc1ccc(NC(=O)[C@H](CCCCN)NC(=O)CNc2ccccc2Oc2ccccc2)cc1 [Compound 366, (S)-6-AMINO-2-[2-(2-PHENOXY-PHENYLAMINO)-ACETYLAMINO]-HEXANOIC ACID P-TOLYLAMIDE] | 100.4 | 64.8 to 121.1 | 100 | – | – |
